Data set [1] deals with T1, panel of 374 wild-type kinases (Homo sapiens, UniProt Q02156).
T1 construct: purchased Reaction Biology Corporation
As to the kind of experiment: biochemical. The settings on record: read-out: % Enzyme Activity (relative to DMSO controls), kinase PKCepsilon; 5 uM.

The target in data set [2] is T2, panel of 374 wild-type kinases (Homo sapiens, UniProt Q8IY84).
T2 construct: purchased Reaction Biology Corporation
As to the kind of experiment: biochemical. The settings on record: read-out: % Enzyme Activity (relative to DMSO controls), NIM1; 5 uM.

The target of data set [3] is T3, panel of 374 wild-type kinases (Homo sapiens, UniProt Q12852).
T3 construct: purchased Reaction Biology Corporation
The data set can be described thus: biochemical. The settings on record: read-out: % Enzyme Activity (relative to DMSO controls), DLK/MAP3K12; 5 uM.

Data set [4] deals with T4, panel of 374 wild-type kinases (Homo sapiens, UniProt Q13043).
T4 construct: purchased Reaction Biology Corporation
T4 sequence (Q13043 1-487): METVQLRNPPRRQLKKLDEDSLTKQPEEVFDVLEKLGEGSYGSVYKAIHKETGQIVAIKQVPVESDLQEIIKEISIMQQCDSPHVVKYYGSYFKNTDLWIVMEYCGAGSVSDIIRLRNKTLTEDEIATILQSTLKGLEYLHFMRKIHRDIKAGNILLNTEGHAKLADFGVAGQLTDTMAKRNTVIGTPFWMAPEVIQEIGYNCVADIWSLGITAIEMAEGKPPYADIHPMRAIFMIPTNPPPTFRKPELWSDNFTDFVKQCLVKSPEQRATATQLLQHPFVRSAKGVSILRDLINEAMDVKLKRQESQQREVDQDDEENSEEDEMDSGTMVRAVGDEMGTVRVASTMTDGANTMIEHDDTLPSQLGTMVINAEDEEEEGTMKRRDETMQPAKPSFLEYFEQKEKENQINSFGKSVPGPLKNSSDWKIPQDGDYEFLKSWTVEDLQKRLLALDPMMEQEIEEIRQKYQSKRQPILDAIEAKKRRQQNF
As to the kind of experiment: biochemical. The settings on record: read-out: % Enzyme Activity (relative to DMSO controls), MST1/STK4.

Data set [5] has as its target T5, panel of 374 wild-type kinases (Homo sapiens, UniProt Q9Y572).
T5 construct: purchased Reaction Biology Corporation
The data set can be described thus: biochemical. The settings on record: read-out: % Enzyme Activity (relative to DMSO controls), kinase RIPK3; 5 uM.

In data set [6] the target is T6, panel of 374 wild-type kinases (Homo sapiens, UniProt Q9H792).
T6 construct: purchased Reaction Biology Corporation
As to the kind of experiment: biochemical. The settings on record: read-out: % Enzyme Activity (relative to DMSO controls), kinase PEAK1; 5 uM.

The target in data set [7] is T7, panel of 374 wild-type kinases (Homo sapiens, UniProt Q00534).
T7 construct: purchased Reaction Biology Corporation
The data set can be described thus: biochemical. The settings on record: 5 uM.

Data set [8] addresses T8, panel of 374 wild-type kinases (Homo sapiens, UniProt Q99640).
T8 construct: purchased Reaction Biology Corporation
As to the kind of experiment: biochemical. The settings on record: read-out: % Enzyme Activity (relative to DMSO controls), kinase PKMYT1; 5 uM.

For data set [9], the target named is T9, panel of 374 wild-type kinases (Homo sapiens, UniProt Q56UN5).
T9 construct: purchased Reaction Biology Corporation
As to the kind of experiment: biochemical. The settings on record: read-out: % Enzyme Activity (relative to DMSO controls), kinase YSK4/MAP3K19.

Data set [10] addresses T10, panel of 374 wild-type kinases (Homo sapiens, UniProt O14578).
T10 construct: purchased Reaction Biology Corporation
As to the kind of experiment: biochemical. The settings on record: read-out: % Enzyme Activity (relative to DMSO controls), kinase STK21/CIT.

Data set [11] has as its target T11, panel of 374 wild-type kinases (Homo sapiens, UniProt P30291).
T11 construct: purchased Reaction Biology Corporation
As to the kind of experiment: biochemical. The settings on record: read-out: % Enzyme Activity (relative to DMSO controls), kinase WEE1; 5 uM.

Data set [12] deals with CYP2C9 (Homo sapiens, UniProt P11712). As to the kind of experiment: P450 cocktail inhibition assay, CYP2C9. Type of data set: in vitro ADME. The settings on record: at 10 μM. How it is done:
(§1) P450s inhibition for four major isoforms are evaluated using a cocktail inhibition assay where the metabolism of specific marker substrate (CYP1A2 phenaceten […] to acetaminophen); CYP2C9, tolbutamide hydroxylation to hydrocytolbutamide; CYP2D6, bufuralol hydroxylation to […]; and CYP3A4, midazolam hydroxylation to 1′-Hydroxymidazolam) in the presence or absence of 10 TM probe compound is evaluated. The concentration of each marker substrate is approximately its Km. […] Specific inhibitors for each isoform are included in each run to validate the system.

Data set [13] relates to SHSY5Y cells. As to the kind of experiment: MTT cytotoxicity assay.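 Further: compounds tested at 10 µM final concentration.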 The settings on record: 48 hrs, average of ≥2 experiments. More on the design: dose or concentration left out as unconfirmed. Type of data set: cell-based. As for the experimental part:
A day before the assay, cells were plated at 50,000/well in 96 well plates in the culture medium. […] After the incubation, cells were subjected to MTT assay using Vybrant MTT Cell Proliferation kit as directed by the vendor (Life Technologies).

Data set [14] in a line: Microsomal stability, mouse. Type of data set: in vitro ADME. The settings on record: mouse microsomes.
Data set [15] concerns the target CYP2D6 (Homo sapiens, UniProt P10635). As to the kind of experiment: P450 cocktail inhibition assay, CYP2D6. In kind it is in vitro ADME. The settings on record: at 10 μM. How it is done: as §1
Data set [16] concerns the target JNK1 (Homo sapiens, UniProt P45983). As to the kind of experiment: JNK1 homogeneous time-resolved fluorescence enzyme inhibition assay. Type of data set: biochemical. The settings on record: mean of ≥2 experiments; read-out: Biochemical inhibition IC50 JNK1. How it is done:
A 10-point titration of all compounds was carried out in 3-fold dilutions from 10 μM to 0.5 nM.

Data set [17] addresses CYP3A4 (Homo sapiens, UniProt P08684). The data set can be described thus: P450 cocktail inhibition assay, CYP3A4. Type of data set: in vitro ADME. The settings on record: at 10 μM. How it is done:
as §1

In data set [18] the target is T12, panel of 374 wild-type kinases (Homo sapiens, UniProt P68400).
T12 construct: purchased Reaction Biology Corporation
As to the kind of experiment: biochemical. The settings on record: CK2a, read-out: % Enzyme Activity (relative to DMSO controls).

The target of data set [19] is T13, panel of 374 wild-type kinases (Homo sapiens, UniProt O15111).
T13 construct: purchased Reaction Biology Corporation
As to the kind of experiment: biochemical. The settings on record: read-out: % Enzyme Activity (relative to DMSO controls), IKKa/CHUK.

Data set [20] has as its target T14, panel of 374 wild-type kinases (Homo sapiens, UniProt O43293).
T14 construct: purchased Reaction Biology Corporation
The data set can be described thus: biochemical. The settings on record: read-out: % Enzyme Activity (relative to DMSO controls), kinase ZIPK/DAPK3.

Data set [21] deals with T15, panel of 374 wild-type kinases (Homo sapiens, UniProt O60307).
T15 construct: purchased Reaction Biology Corporation
The data set can be described thus: biochemical. The settings on record: read-out: % Enzyme Activity (relative to DMSO controls), MAST3.

[22] abbreviates: read-out: % Enzyme Activity (relative to DMSO controls), CDK6/cyclin D1.
[23] abbreviates: read-out: % Enzyme Activity (relative to DMSO controls), CDK6/cyclin D3.

Where two headings read alike, the source gives them in different places.

What is called IC50 is the midpoint of a concentration-inhibition curve.

CYP2C9, sequence (P11712 whole entry, canonical isoform): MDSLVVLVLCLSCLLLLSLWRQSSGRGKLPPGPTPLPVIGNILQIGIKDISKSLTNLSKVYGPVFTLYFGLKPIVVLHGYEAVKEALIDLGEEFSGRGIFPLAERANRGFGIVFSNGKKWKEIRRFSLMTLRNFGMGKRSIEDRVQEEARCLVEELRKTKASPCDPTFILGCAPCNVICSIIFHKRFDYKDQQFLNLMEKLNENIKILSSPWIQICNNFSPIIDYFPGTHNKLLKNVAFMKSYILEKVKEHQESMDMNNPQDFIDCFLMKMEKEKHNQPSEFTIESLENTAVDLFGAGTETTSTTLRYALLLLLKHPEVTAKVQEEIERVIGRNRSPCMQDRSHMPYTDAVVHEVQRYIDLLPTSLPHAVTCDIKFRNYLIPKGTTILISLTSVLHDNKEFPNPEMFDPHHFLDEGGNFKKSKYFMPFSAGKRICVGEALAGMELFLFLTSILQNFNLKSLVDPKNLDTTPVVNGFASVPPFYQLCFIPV
CYP3A4, sequence (P08684 whole entry): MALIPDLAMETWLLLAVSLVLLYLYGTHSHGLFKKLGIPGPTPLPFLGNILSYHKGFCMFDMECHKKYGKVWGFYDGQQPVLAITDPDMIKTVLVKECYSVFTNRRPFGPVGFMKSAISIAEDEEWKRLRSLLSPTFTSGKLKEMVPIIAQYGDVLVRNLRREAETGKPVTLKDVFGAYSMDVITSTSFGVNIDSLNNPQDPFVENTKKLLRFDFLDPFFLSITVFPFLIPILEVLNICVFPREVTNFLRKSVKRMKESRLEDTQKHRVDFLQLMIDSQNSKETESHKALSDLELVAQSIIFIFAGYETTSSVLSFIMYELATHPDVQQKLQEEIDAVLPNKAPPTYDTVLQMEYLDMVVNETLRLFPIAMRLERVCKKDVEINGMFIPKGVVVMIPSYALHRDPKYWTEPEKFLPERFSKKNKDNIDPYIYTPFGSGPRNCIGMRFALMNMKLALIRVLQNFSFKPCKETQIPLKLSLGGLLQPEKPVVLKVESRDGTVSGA
CYP2D6, sequence (P10635 whole entry): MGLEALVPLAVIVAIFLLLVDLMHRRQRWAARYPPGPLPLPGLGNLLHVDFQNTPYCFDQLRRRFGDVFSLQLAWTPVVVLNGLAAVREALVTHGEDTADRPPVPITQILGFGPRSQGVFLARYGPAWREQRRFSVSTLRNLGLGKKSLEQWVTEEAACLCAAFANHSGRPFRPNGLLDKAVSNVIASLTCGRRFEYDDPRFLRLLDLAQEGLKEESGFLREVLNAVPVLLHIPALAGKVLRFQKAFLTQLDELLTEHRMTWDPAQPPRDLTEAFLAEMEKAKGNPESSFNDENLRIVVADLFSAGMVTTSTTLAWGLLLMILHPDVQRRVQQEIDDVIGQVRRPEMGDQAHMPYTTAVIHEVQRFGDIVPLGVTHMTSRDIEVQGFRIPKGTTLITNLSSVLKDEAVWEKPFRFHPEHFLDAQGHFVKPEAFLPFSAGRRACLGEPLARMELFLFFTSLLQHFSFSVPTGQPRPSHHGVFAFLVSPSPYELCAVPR
T7 sequence (Q00534 whole entry): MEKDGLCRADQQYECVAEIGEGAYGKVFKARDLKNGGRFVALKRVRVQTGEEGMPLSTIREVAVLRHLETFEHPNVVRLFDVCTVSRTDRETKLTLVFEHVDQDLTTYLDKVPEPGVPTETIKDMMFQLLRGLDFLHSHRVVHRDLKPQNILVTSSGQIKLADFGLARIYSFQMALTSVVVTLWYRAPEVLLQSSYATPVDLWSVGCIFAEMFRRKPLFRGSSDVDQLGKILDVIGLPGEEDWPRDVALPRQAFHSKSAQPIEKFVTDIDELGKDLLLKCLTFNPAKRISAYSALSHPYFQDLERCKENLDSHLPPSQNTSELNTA
T14 sequence (O43293 whole entry): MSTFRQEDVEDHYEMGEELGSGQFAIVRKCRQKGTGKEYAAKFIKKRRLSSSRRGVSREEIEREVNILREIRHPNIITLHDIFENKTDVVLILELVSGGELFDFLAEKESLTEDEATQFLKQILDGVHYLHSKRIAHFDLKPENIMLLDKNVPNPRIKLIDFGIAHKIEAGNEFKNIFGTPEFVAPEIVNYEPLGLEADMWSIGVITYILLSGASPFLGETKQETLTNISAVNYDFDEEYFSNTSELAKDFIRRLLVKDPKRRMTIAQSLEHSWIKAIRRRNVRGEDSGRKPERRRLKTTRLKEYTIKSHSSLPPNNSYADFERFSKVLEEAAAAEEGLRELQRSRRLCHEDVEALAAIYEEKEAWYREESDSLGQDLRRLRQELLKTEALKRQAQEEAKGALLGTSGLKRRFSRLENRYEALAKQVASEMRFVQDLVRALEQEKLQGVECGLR
T11 sequence (P30291 whole entry): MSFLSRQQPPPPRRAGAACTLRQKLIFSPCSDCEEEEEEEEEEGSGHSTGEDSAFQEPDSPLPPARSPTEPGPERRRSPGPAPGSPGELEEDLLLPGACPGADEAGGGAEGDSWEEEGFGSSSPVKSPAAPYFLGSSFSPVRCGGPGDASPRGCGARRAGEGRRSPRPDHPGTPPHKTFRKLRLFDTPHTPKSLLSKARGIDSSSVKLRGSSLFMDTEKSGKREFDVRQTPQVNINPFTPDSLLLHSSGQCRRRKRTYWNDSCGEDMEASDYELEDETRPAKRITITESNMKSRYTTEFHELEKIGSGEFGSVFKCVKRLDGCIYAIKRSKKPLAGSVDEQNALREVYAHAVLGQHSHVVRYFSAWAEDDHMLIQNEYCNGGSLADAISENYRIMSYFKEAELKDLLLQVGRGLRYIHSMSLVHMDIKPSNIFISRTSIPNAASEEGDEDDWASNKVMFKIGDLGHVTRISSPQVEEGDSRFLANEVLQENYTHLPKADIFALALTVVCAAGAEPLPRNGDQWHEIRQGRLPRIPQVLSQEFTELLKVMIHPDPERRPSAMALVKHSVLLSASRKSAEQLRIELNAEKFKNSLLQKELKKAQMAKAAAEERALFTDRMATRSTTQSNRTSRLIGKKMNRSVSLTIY
T15 sequence (O60307 whole entry): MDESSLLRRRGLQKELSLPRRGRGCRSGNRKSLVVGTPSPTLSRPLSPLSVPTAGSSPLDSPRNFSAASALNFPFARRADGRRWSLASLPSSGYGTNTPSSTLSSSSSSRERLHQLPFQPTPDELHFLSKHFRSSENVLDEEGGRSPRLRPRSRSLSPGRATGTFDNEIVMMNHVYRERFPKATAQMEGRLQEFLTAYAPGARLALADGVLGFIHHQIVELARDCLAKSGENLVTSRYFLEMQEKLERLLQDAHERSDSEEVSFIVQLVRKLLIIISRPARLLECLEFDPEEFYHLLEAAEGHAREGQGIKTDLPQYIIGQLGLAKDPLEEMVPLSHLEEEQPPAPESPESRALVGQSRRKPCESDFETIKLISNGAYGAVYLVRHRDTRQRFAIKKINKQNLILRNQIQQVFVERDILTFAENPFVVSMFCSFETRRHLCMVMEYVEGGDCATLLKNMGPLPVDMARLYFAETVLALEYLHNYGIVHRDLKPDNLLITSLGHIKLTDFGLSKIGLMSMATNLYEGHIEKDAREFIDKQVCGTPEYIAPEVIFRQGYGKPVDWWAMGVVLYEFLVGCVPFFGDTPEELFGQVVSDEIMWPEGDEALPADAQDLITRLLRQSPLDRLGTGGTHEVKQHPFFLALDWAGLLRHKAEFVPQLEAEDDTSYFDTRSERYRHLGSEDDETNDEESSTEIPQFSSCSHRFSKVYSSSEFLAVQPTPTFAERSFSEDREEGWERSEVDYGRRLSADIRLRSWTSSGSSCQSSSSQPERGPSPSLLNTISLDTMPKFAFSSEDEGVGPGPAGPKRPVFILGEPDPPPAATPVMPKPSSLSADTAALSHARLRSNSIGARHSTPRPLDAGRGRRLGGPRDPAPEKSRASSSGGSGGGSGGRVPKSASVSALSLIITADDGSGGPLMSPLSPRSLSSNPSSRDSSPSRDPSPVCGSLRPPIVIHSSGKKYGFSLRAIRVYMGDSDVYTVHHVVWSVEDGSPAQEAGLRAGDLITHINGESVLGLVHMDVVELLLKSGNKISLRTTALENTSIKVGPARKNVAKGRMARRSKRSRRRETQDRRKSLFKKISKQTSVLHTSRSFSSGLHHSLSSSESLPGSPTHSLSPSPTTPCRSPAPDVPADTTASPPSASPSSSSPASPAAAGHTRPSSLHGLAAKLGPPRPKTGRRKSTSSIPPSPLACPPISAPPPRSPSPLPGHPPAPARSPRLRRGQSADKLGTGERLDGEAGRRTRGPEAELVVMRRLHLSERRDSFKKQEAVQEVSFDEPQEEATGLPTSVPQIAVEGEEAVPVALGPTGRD
T8 sequence (Q99640 whole entry): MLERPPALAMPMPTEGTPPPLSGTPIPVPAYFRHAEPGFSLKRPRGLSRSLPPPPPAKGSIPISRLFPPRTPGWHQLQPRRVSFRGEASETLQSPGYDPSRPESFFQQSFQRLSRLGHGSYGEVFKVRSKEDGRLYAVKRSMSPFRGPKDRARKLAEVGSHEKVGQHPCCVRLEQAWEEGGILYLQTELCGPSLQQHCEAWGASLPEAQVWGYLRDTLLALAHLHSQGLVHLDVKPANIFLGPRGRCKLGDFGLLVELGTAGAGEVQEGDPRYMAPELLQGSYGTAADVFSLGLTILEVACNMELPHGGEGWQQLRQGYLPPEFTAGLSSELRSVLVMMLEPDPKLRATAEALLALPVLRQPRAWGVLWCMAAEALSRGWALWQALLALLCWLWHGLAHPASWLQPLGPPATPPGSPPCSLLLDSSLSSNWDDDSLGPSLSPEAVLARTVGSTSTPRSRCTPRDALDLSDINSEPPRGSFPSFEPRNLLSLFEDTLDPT

In the case of `O=C(Nc1cnn(-c2csc(C(=O)NC3COC3)c2)c1)Nc1ccccc1Cl` [Compound 17, 4-(4-(3-(2-chlorophenyl)ureido)-1H-pyrazol-1-yl)-N-(oxetan-3-yl)thiophene-2-carboxamide], the remaining activity at 5 µM in data set [1] was determined as 102%; in data set [2], 101%; in data set [3] it was 96.5%; in [4], 99.3%; in data set [5], 101%; in data set [6], 91.4%. Further, the remaining activity at 5 µM amounted to 95.4% in [7] (setting [22]); 114% in [7] (setting [23]); 87% in [8]; 105% in data set [9] (5 uM); 90.1% in [10] (5 uM); 124% in data set [11]. In [12], the “CYP-450 % inh. 2C9” value turned out to be 8%. Also, the MTT cell viability in data set [13] came to 104%. Further, the “Mic. stability t1/2 Mouse” value in [14] was determined as 24 min. The “CYP-450 % inh. 2D6” value in data set [15] is −15%. Moreover, in data set [16], the IC50 came out at 5.9 µM. Also, the “CYP-450 % inh. 3A4” value in data set [17] is −34%.

On to `O=C(Nc1cnn(-c2csc(C(=O)NC3COC3)c2)c1)Nc1c(F)cccc1Cl` [Compound 25, 4-(4-(3-(2-chloro-6-fluorophenyl)ureido)-1H-pyrazol-1-yl)-N-(oxetan-3-yl)thiophene-2-carboxamide], for which the remaining activity at 5 µM turned out to be 94.2% in [1]; 70.7% in data set [2]; 82.2% in [3]; 96.6% in data set [4]; 90.5% in data set [18] (5 uM); 97.5% in data set [5]. Also, the remaining activity at 5 µM came out at 108% in [19] (5 uM); 108% in [20] (5 uM); 105% in data set [7] (setting [22]); 92.6% in data set [7] (setting [23]); 89.6% in data set [8]; 108% in [21] (5 uM). For the same compound, the remaining activity at 5 µM in [11] is 85.2%. Moreover, the “CYP-450 % inh. 2C9” value in data set [12] turned out to be 48%. The MTT cell viability in data set [13] is reported as 102%. The “Mic. stability t1/2 Mouse” value in data set [14] amounted to 72 min. For the same compound, the “CYP-450 % inh. 2D6” value in data set [15] is recorded as 31%. Further, the “CYP-450 % inh. 3A4” value in data set [17] is given as 24%.

Regarding `Cc1sc(C(=O)NC2COC2)cc1-n1cc(NC(=O)Nc2c(F)cccc2Cl)cn1` [Compound 27, 4-(4-(3-(2-chloro-6-fluorophenyl)ureido)-1H-pyrazol-1-yl)-5-methyl-N-(oxetan-3-yl)thiophene-2-carboxamide], the remaining activity at 10 µM in data set [4] (10 uM) came out at 107%; in data set [18] (10 uM), 97%; in data set [19] (10 uM), 101%; in data set [20] (10 uM), 101%; in data set [9] (10 uM), 95.5%; in data set [21] (10 uM), 96.7%. Also, the remaining activity at 10 µM in [10] (10 uM) came to 98.8%. Further, the “CYP-450 % inh. 2C9” value in [12] worked out at 33%. Moreover, the MTT cell viability in data set [13] amounted to 111%. Also, the “Mic. stability t1/2 Mouse” value in [14] is given as 57 min. In addition, in [15], the “CYP-450 % inh. 2D6” value is 1%. Further, the “CYP-450 % inh. 3A4” value in data set [17] turned out to be 16%.

The values above are taken from patent US20240246942A1, “KINASE INHIBITORS FOR THE TREATMENT OF NEURODEGENERATIVE DISEASES” (priority 2020, published 2024).
